Experiments:
[1] = system: CUG foci in primary DM1 patient myoblasts; assay: Single-cut screening: FISH staining of CUG RNA foci; type: cell-based, human; details: single sgRNA, primary DM1 patient myoblasts; for % of CUG foci free nuclei (DNA-PKi): DNA-PKi treated
Summary of the method: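 CD56-purified primary DM1 patient myoblasts nucleofected with SluCas9:sgRNA RNP (30:90 pmol, single-cut), then DMSO or 3 μM DNA-PK inhibitor for 48 h. At 72 h post-nucleofection, cells fixed and stained for CUG foci with Cy3-PNA(CAG)5 probe (1 ng/μL, 80 °C), co-stained for MBNL1 and Hoechst, imaged by high-content confocal microscopy.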

[2] = system: 3′ UTR of the human DMPK gene; assay: Single-cut screening: indel editing efficiency by Sanger sequencing and ICE analysis in primary DM1 patient myoblasts; type: cell-based; details: vehicle-treated samples; for Indel efficiency: single SluCas9 sgRNA RNP in primary DM1 patient myoblasts, Sanger sequencing and ICE analysis; for indel efficiency (Sanger sequencing and ICE analysis): single-cut, SluCas9 RNP, 72 hrs post nucleofection, wild-type allele
Summary of the method: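 Indels were estimated by ICE from Sanger chromatograms of PCR amplicons covering the DMPK 3′ UTR wild-type allele, using only vehicle-treated samples; sgRNAs with R2<0.9 are flagged. Samples came from primary DM1 patient myoblasts (2 × 10^5) harvested 72 h after nucleofection with 30 pmol SluCas9 and 90 pmol single sgRNA RNP.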

[3] = system: CAG foci in primary DM1 patient myoblasts; assay: Single-cut screening: CAG foci staining; type: cell-based, human; details: single sgRNA; for % of CAG foci positive nuclei (DNA-PKi): DNA-PKi treated
Summary of the method: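 Primary DM1 patient myoblasts were PFA-fixed and hybridized with […] (1 ng/μL, 15 min at 80° C) in 30% formamide/2×SSC, followed by anti-MBNL1 immunostaining and Hoechst counterstain. CAG RNA foci were quantified by high-content confocal imaging after single-cut SuCas9 sgRNA editing.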

Row | Substance | % of CUG foci free nuclei (DNA-PKi) [1] [%] | % of CUG foci free nuclei (Vehicle) [1] [%] | Indel efficiency [2] [%] | indel efficiency (Sanger sequencing and ICE analysis) [2] | % of CAG foci positive nuclei (DNA-PKi) [3] [%] | % of CAG foci positive nuclei (Vehicle) [3] [%]
1 | CTTGTGCATGACGCCCTGCTCT (listed as DNA, chemistry not fully specified) [SluD32] | 26.23 | 19.22 | 94 | high editing IN4DEL efficiency | 1.31 | 1.43
2 | CTTTGCGAACCAACGATAGGTG (guide RNA; chemistry not fully specified) [SluD25] | 32.03 | 26.87 | 41 |  | 1.35 | 2.62
3 | CTTTTATTCGCGAGGGTCGGGG (guide RNA; chemistry not fully specified) [SluD93] | 26.14 | 11.34 | 18 |  | 3.58 | 1.63
4 | CTTTTGCCAAACCCGCTTTTTC (guide RNA; chemistry not fully specified) [SluD41] | 37.15 | 8.97 | 6 |  | 1.44 | 1.33
5 | GACAATAAATACCGAGGAATGT (guide RNA; chemistry not fully specified) [SluD81] | 28.66 | 9.64 | 10 |  | 1.75 | 1.54
6 | GACGCCCTGCTCTGGGGAGCGT (guide RNA; chemistry not fully specified) [SluD33] | 33.92 | 12.72 | 74 |  | 1.76 | 4.78
7 | GAGAGCAGCGCAAGTGAGGAGG (listed as DNA, chemistry not fully specified) [SluD48] | 25.41 | 13.31 | 60 | high editing IN4DEL efficiency | 2.91 | 2.3
8 | GAGGGCCTTTTATTCGCGAGGG (guide RNA; chemistry not fully specified) [SluD97] | 39.95 | 16.07 | 11 |  | 2.01 | 1.19
9 | GATAGGTGGGGGTGCGTGGAGG (guide RNA; chemistry not fully specified) [SluD21] | 32.15 | 9.96 | 36 |  | 1.77 | 1.95
10 | GATCACAGACCATTTCTTTCTT (guide RNA; chemistry not fully specified) [SluD01] | 17.29 | 18.45 | 0 |  | 1.34 | 0.79
11 | GATGGAGGGCCTTTTATTCGCG (guide RNA; chemistry not fully specified) [SluD98] | 11.71 | 11.21 | 0 |  | 1.47 | 0.84
12 | GCACTTTGCGAACCAACGATAG (guide RNA; chemistry not fully specified) [SluD28] | 31.88 | 11.31 | 48 |  | 1.29 | 1.23
13 | GCCCAGCTCCAGTCCTGTGATC (guide RNA; chemistry not fully specified) [SluU28] | 36.78 | 10.14 | 17 |  | 1.64 | 1.15
14 | GCCCCAGCCGGCTCCGCCCGCT (guide RNA; chemistry not fully specified) [SluD55] | 34.69 | 15.71 | 41 |  | 2.92 | 3.01
15 | GCCCCCTAGCggccggggaggg (guide RNA; as printed in the source, key not given here) [SluU42] | 42.7 | 7.05 | 15 |  | 1.62 | 0.86
16 | GCCCCGGAGTCGAAGACAGTTC (guide RNA; chemistry not fully specified) [SluU05] | 61.16 | 26.37 | 65 |  | 1.64 | 1.53
17 | GCCCCGGGCACTCAGTCTTCCA (guide RNA; chemistry not fully specified) [SluU13] | 43.12 | 17.02 | 27 |  | 1.07 | 1.11
18 | GCCCGCCCCCTAGCggccgggg (guide RNA; as printed in the source, key not given here) [SluU40] | 25.77 | 15.29 | 3 |  | 2.01 | 1
19 | GCCCGGATCACAGGACTGGAGC (guide RNA; chemistry not fully specified) [SluU30] | 46.16 | 26.92 | 48 |  | 2.14 | 0.67
20 | GCCTGTCAGCGAGTCGGAGGAC (guide RNA; chemistry not fully specified) [SluD66] | 30.48 | 13.03 | 28 |  | 1.94 | 1.41
21 | GCGCGATCTCTGCCTGCTTACT (guide RNA; chemistry not fully specified) [SluD37] | 31.69 | 6.89 | 25 |  | 2.15 | 1.76
22 | GCGCGGCTTCTGTGCCGTGCCC (guide RNA; chemistry not fully specified) [SluU15] | 31.71 | 7.97 | 4 |  | 1.28 | 0.75
23 | GCGGTTGTGAACTGGCAGGCGG (guide RNA; chemistry not fully specified) [SluU18] | 48.57 | 9.74 | 14 |  | 1.24 | 1.1
24 | GCTAGGGGGCGGGCCCGGATCA (guide RNA; chemistry not fully specified) [SluU34] | 63.08 | 19.95 | 53 |  | 1.03 | 0.78
25 | GCTCGGAGCGGTTGTGAACTGG (listed as DNA, chemistry not fully specified) [SluU21] | 54.83 | 23.65 | 80 | high editing IN4DEL efficiency | 0.66 | 0.68
26 | GCTTTTGCCAAACCCGCTTTTT (guide RNA; chemistry not fully specified) [SluD40] | 23.44 | 8.9 | 5 |  | 1.46 | 1.68
27 | GGCCCGCCCCCTAGCggccggg (guide RNA; as printed in the source, key not given here) [SluU38] | 32.86 | 7.24 | 2 |  | 1.56 | 0.68
28 | GGCCCGGATCACAGGACTGGAG (guide RNA; chemistry not fully specified) [SluU31] | 40.74 | 14.2 | 29 |  | 1.62 | 0.94

— patent publication US20240173432A1, “Compositions and Methods for Treatment of Myotonic Dystrophy Type 1 with CRISPR/SluCas9” (Vertex Pharmaceuticals Incorporated, priority 2021, published 2024)
